{"source": "PubChem BioAssay (NCI)", "assay_in_all_cases": "NCI tumour cell line growth inhibition, 48 h", "key": {"[1]": {"test_system": "HS 578T breast"}, "[2]": {"test_system": "CCRF-CEM leukemia"}, "[3]": {"test_system": "COLO 205 colon"}, "[4]": {"test_system": "U251 CNS"}, "[5]": {"test_system": "TK-10 renal"}, "[6]": {"test_system": "HCC-2998 colon"}, "[7]": {"test_system": "OVCAR-8 ovarian"}, "[8]": {"test_system": "RPMI-8226 leukemia"}, "[9]": {"test_system": "OVCAR-4 ovarian"}, "[10]": {"test_system": "SW-620 colon"}, "[11]": {"test_system": "UO-31 renal"}, "[12]": {"test_system": "PC-3 prostate"}, "[13]": {"test_system": "HCT-116 colon"}, "[14]": {"test_system": "MCF7 breast"}, "[15]": {"test_system": "K-562 leukemia"}, "[16]": {"test_system": "A549 NSCLC"}, "[17]": {"test_system": "HT29 colon"}, "[18]": {"test_system": "LOX IMVI melanoma"}, "[19]": {"test_system": "BT-549 breast"}, "[20]": {"test_system": "MDA-MB-231 breast"}, "[21]": {"test_system": "HL-60(TB) leukemia"}, "[22]": {"test_system": "NCI-H226 lung"}, "[23]": {"test_system": "SF-539 CNS"}, "[24]": {"test_system": "OVCAR-5 ovarian"}, "[25]": {"test_system": "SNB-19 CNS"}, "[26]": {"test_system": "UACC-62 melanoma"}, "[27]": {"test_system": "KM12 colon"}, "[28]": {"test_system": "EKVX NSCLC"}}, "note": "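Interpolation was linear, between the two tested concentrations surrounding the appropriate level; five concentrations were tested over 48 hours in 96-well plates. GI50 marks 50% less growth. At the TGI there is no net growth.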"}
{"compound": "c1ccc(CC(Cc2ccccc2)C2=NCCCN2)cc1", "values": [{"measurement": "TGI", "setting": "[1]", "value": "> 100", "unit": "µM"}, {"measurement": "GI50", "setting": "[2]", "value": 3.12, "unit": "µM"}, {"measurement": "TGI", "setting": "[2]", "value": 93.3, "unit": "µM"}, {"measurement": "GI50", "setting": "[3]", "value": 3.49, "unit": "µM"}, {"measurement": "TGI", "setting": "[3]", "value": 12.4, "unit": "µM"}, {"measurement": "GI50", "setting": "[4]", "value": 3.38, "unit": "µM"}, {"measurement": "TGI", "setting": "[4]", "value": "> 100", "unit": "µM"}, {"measurement": "GI50", "setting": "[5]", "value": 7.57, "unit": "µM"}, {"measurement": "TGI", "setting": "[5]", "value": "> 100", "unit": "µM"}, {"measurement": "GI50", "setting": "[6]", "value": 3.08, "unit": "µM"}, {"measurement": "TGI", "setting": "[6]", "value": 9.35, "unit": "µM"}, {"measurement": "GI50", "setting": "[7]", "value": 3.21, "unit": "µM"}, {"measurement": "TGI", "setting": "[7]", "value": "> 100", "unit": "µM"}, {"measurement": "GI50", "setting": "[8]", "value": 3.62, "unit": "µM"}, {"measurement": "TGI", "setting": "[8]", "value": 42.3, "unit": "µM"}, {"measurement": "GI50", "setting": "[9]", "value": 3.93, "unit": "µM"}, {"measurement": "TGI", "setting": "[9]", "value": "> 100", "unit": "µM"}, {"measurement": "GI50", "setting": "[10]", "value": 3.94, "unit": "µM"}, {"measurement": "TGI", "setting": "[10]", "value": "> 100", "unit": "µM"}, {"measurement": "GI50", "setting": "[11]", "value": 7.83, "unit": "µM"}, {"measurement": "TGI", "setting": "[11]", "value": "> 100", "unit": "µM"}, {"measurement": "GI50", "setting": "[12]", "value": 3.87, "unit": "µM"}, {"measurement": "TGI", "setting": "[12]", "value": "> 100", "unit": "µM"}, {"measurement": "GI50", "setting": "[13]", "value": 3.71, "unit": "µM"}, {"measurement": "TGI", "setting": "[13]", "value": 17.3, "unit": "µM"}, {"measurement": "GI50", "setting": "[14]", "value": 3.57, "unit": "µM"}, {"measurement": "TGI", "setting": "[14]", "value": "> 100", "unit": "µM"}, {"measurement": "GI50", "setting": "[15]", "value": 4.04, "unit": "µM"}, {"measurement": "TGI", "setting": "[15]", "value": "> 100", "unit": "µM"}, {"measurement": "GI50", "setting": "[16]", "value": 3.42, "unit": "µM"}, {"measurement": "TGI", "setting": "[16]", "value": "> 100", "unit": "µM"}, {"measurement": "GI50", "setting": "[17]", "value": 3.48, "unit": "µM"}, {"measurement": "TGI", "setting": "[17]", "value": "> 100", "unit": "µM"}, {"measurement": "GI50", "setting": "[18]", "value": 3.71, "unit": "µM"}, {"measurement": "TGI", "setting": "[18]", "value": 23.6, "unit": "µM"}, {"measurement": "GI50", "setting": "[19]", "value": 3.77, "unit": "µM"}, {"measurement": "TGI", "setting": "[19]", "value": 70.9, "unit": "µM"}, {"measurement": "GI50", "setting": "[20]", "value": 5.37, "unit": "µM"}, {"measurement": "TGI", "setting": "[20]", "value": "> 100", "unit": "µM"}, {"measurement": "GI50", "setting": "[21]", "value": 2380, "unit": "nM"}, {"measurement": "TGI", "setting": "[21]", "value": 6.41, "unit": "µM"}, {"measurement": "GI50", "setting": "[22]", "value": 2480, "unit": "nM"}, {"measurement": "TGI", "setting": "[22]", "value": 7.47, "unit": "µM"}, {"measurement": "GI50", "setting": "[23]", "value": 3.37, "unit": "µM"}, {"measurement": "TGI", "setting": "[23]", "value": "> 100", "unit": "µM"}, {"measurement": "GI50", "setting": "[24]", "value": 5.95, "unit": "µM"}, {"measurement": "TGI", "setting": "[24]", "value": "> 100", "unit": "µM"}, {"measurement": "GI50", "setting": "[25]", "value": 3.49, "unit": "µM"}, {"measurement": "TGI", "setting": "[25]", "value": "> 100", "unit": "µM"}, {"measurement": "GI50", "setting": "[26]", "value": 4.22, "unit": "µM"}, {"measurement": "TGI", "setting": "[26]", "value": "> 100", "unit": "µM"}, {"measurement": "GI50", "setting": "[27]", "value": 3.26, "unit": "µM"}, {"measurement": "TGI", "setting": "[27]", "value": "> 100", "unit": "µM"}, {"measurement": "GI50", "setting": "[28]", "value": 6.96, "unit": "µM"}, {"measurement": "TGI", "setting": "[28]", "value": "> 100", "unit": "µM"}]}
